The text below walks through data of ChEMBL document CHEMBL1134146, “Development of specific CXCR4 inhibitors possessing high selectivity indexes as well as complete stability in serum based on an anti-HIV peptide T140” (Bioorg Med Chem Lett, 2001).

The subject of one assay is MT4. The assay is described as follows: Cytotoxic concentration of compound required to reduce the viability of mock infected MT-4 cells on the MTT assay in test I. It counts as functional. Particulars: Homo sapiens. (In general: Tetrazolium dyes change colour on reduction, which living cells bring about.)
A further assay relates to PBMC (Homo sapiens). Kind of assay: Cytotoxic concentration of compound determined by the […] exclusion staining method in PBMC by test II.
A short description of assay [1]: Selectivity index determined for CC50 (test I) to EC50 x 10e3. It counts as functional.

Molecules are shown by their SMILES. Bounds are passed on as bounds.

Consider `NCCCC[C@@H]1NC(=O)[C@H](CCCN=C(N)N)NC(=O)[C@H](Cc2ccc(O)cc2)NC(=O)[C@@H](NC(=O)[C@@H](NC(=O)[C@H](CCCN=C(N)N)NC(=O)[C@@H](N)CCCN=C(N)N)c2ccc3ccccc3c2)CSSC[C@@H](C(=O)N[C@@H](CCCN=C(N)N)C(N)=O)NC(=O)[C@H](CCCNC(N)=O)NC(=O)[C@H](CCCN=C(N)N)NC(=O)[C@H](Cc2ccc(O)cc2)NC(=O)[C@@H]2CCCN2C(=O)[C@@H](CCCNC(N)=O)NC1=O`, for which the cytotoxic concentration (CC50) in the assay with MT4 is more than 100 µM; with PBMC (Homo sapiens) it was 98 µM.

`NCCCC[C@@H]1NC(=O)[C@H](CCCN=C(N)N)NC(=O)[C@H](Cc2ccc(O)cc2)NC(=O)[C@@H](NC(=O)[C@@H](NC(=O)[C@H](CCCN=C(N)N)NC(=O)[C@@H](N)CCCN=C(N)N)c2ccc3ccccc3c2)CSSC[C@@H](C(=O)N[C@@H](CCCN=C(N)N)C(N)=O)NC(=O)[C@H](CCCNC(N)=O)NC(=O)[C@H](CCCN=C(N)N)NC(=O)[C@H](Cc2ccc(O)cc2)NC(=O)[C@@H]2CCCN2C(=O)[C@@H](CCCCN)NC1=O` yielded a cytotoxic concentration (CC50) in the assay with MT4 of 10 µM.

Turning to `NCCCC[C@@H]1NC(=O)[C@H](CCCN=C(N)N)NC(=O)[C@H](Cc2ccc(O)cc2)NC(=O)[C@@H](NC(=O)[C@@H](NC(=O)[C@H](CCCN=C(N)N)NC(=O)[C@@H](N)CCCN=C(N)N)c2ccc3ccccc3c2)CSSC[C@@H](C(=O)N[C@@H](CCCN=C(N)N)C(N)=O)NC(=O)[C@H](CCCNC(N)=O)NC(=O)[C@H](CCCNC(N)=O)NC(=O)[C@H](Cc2ccc(O)cc2)NC(=O)[C@@H]2CCCN2C(=O)[C@@H](CCCNC(N)=O)NC1=O`, the cytotoxic concentration (CC50) is more than 100 µM with MT4 and 680 µM in the assay with PBMC (Homo sapiens).

For `NCCCC[C@@H]1NC(=O)[C@H](CCCN=C(N)N)NC(=O)[C@H](Cc2ccc(O)cc2)NC(=O)[C@@H](NC(=O)[C@@H](NC(=O)[C@H](CCCN=C(N)N)NC(=O)[C@@H](N)CCCN=C(N)N)c2ccc3ccccc3c2)CSSC[C@@H](C(=O)N[C@@H](CCCN=C(N)N)C(=O)O)NC(=O)[C@H](CCCNC(N)=O)NC(=O)[C@H](CCCNC(N)=O)NC(=O)[C@H](Cc2ccc(O)cc2)NC(=O)[C@@H]2CCCN2C(=O)[C@@H](CCCNC(N)=O)NC1=O`, the half-maximal cytotoxic concentration (CC50) in the assay with MT4 was more than 100 µM; in the assay with PBMC (Homo sapiens), more than 800 µM.

In the case of `NCCCC[C@@H]1NC(=O)[C@H](CCCNC(N)=O)NC(=O)[C@H](Cc2ccc(O)cc2)NC(=O)[C@@H](NC(=O)[C@@H](NC(=O)[C@H](CCCN=C(N)N)NC(=O)[C@@H](N)CCCNC(N)=O)c2ccc3ccccc3c2)CSSC[C@@H](C(=O)N[C@@H](CCCN=C(N)N)C(N)=O)NC(=O)[C@H](CCCNC(N)=O)NC(=O)[C@H](CCCN=C(N)N)NC(=O)[C@H](Cc2ccc(O)cc2)NC(=O)[C@@H]2CCCN2C(=O)[C@@H](CCCCN)NC1=O`, the results for the CC50 in the assay with MT4 and with PBMC (Homo sapiens) were more than 100 µM and 350 µM, respectively.

Molecule `Nc1ccn([C@H]2CC[C@@H](CO)O2)c(=O)n1` [ZALCITABINE] gave a CC50 in the assay on MT4 of 14 µM. For the same molecule, the SI in assay [1] was determined as 0.16.

Regarding `NCCCC[C@@H]1NC(=O)[C@H](CCCNC(N)=O)NC(=O)[C@H](Cc2ccc(O)cc2)NC(=O)[C@@H](NC(=O)[C@@H](NC(=O)[C@H](CCCN=C(N)N)NC(=O)[C@@H](N)CCCNC(N)=O)c2ccc3ccccc3c2)CSSC[C@@H](C(=O)N[C@@H](CCCN=C(N)N)C(=O)O)NC(=O)[C@H](CCCNC(N)=O)NC(=O)[C@H](CCCN=C(N)N)NC(=O)[C@H](Cc2ccc(O)cc2)NC(=O)[C@@H]2CCCN2C(=O)[C@@H](CCCCN)NC1=O`, the 50% cytotoxic concentration (CC50) was more than 100 µM with MT4 and more than 800 µM with PBMC (Homo sapiens).

`NCCCC[C@@H]1NC(=O)[C@H](CCCNC(N)=O)NC(=O)[C@H](Cc2ccc(O)cc2)NC(=O)[C@@H](NC(=O)[C@@H](NC(=O)[C@H](CCCN=C(N)N)NC(=O)[C@@H](N)CCCN=C(N)N)c2ccc3ccccc3c2)CSSC[C@@H](C(=O)N[C@@H](CCCN=C(N)N)C(=O)O)NC(=O)[C@H](CCCNC(N)=O)NC(=O)[C@H](CCCN=C(N)N)NC(=O)[C@H](Cc2ccc(O)cc2)NC(=O)[C@@H]2CCCN2C(=O)[C@@H](CCCCN)NC1=O`: the CC50 in the assay with MT4 is more than 80 µM; in the assay on PBMC (Homo sapiens) it was 510 µM.

Consider `NCCCC[C@@H]1NC(=O)[C@@H](CCCCN)NC(=O)[C@H](CCCN=C(N)N)NC(=O)[C@@H](Cc2ccc(O)cc2)NC(=O)[C@H](NC(=O)[C@@H](NC(=O)[C@H](CCCN=C(N)N)NC(=O)[C@@H](N)CCCN=C(N)N)c2ccc3ccccc3c2)CSSC[C@H](C(=O)N[C@@H](CCCN=C(N)N)C(N)=O)NC(=O)[C@H](CCCNC(N)=O)NC(=O)[C@H](CCCN=C(N)N)NC(=O)[C@H](Cc2ccc(O)cc2)NC(=O)[C@H]2CCCN2C1=O`, for which, in assay [1], the SI is 0.14.

On to `NCCCC[C@@H]1NC(=O)[C@H](CCCNC(N)=O)NC(=O)[C@H](Cc2ccc(O)cc2)NC(=O)[C@@H](NC(=O)[C@@H](NC(=O)[C@H](CCCN=C(N)N)NC(=O)[C@@H](N)CCCN=C(N)N)c2ccc3ccccc3c2)CSSC[C@@H](C(=O)N[C@@H](CCCN=C(N)N)C(=O)O)NC(=O)[C@H](CCCNC(N)=O)NC(=O)[C@H](CCCNC(N)=O)NC(=O)[C@H](Cc2ccc(O)cc2)NC(=O)[C@@H]2CCCN2C(=O)[C@@H](CCCCN)NC1=O`, for which the cytotoxic concentration (CC50) with MT4 was more than 100 µM; in the assay on PBMC (Homo sapiens), more than 800 µM.

Take `NCCCC[C@@H]1NC(=O)[C@H](CCCNC(N)=O)NC(=O)[C@H](Cc2ccc(O)cc2)NC(=O)[C@@H](NC(=O)[C@@H](NC(=O)[C@H](CCCN=C(N)N)NC(=O)[C@@H](N)CCCN=C(N)N)c2ccc3ccccc3c2)CSSC[C@@H](C(=O)N[C@@H](CCCN=C(N)N)C(=O)O)NC(=O)[C@H](CCCNC(N)=O)NC(=O)[C@H](CCCN=C(N)N)NC(=O)[C@H](Cc2ccc(O)cc2)NC(=O)[C@@H]2CCCN2C(=O)[C@@H](CCCNC(N)=O)NC1=O`: the half-maximal cytotoxic concentration (CC50) with MT4 was more than 100 µM; in the assay on PBMC (Homo sapiens), more than 800 µM.

As to `NCCCC[C@@H]1NC(=O)[C@H](CCCNC(N)=O)NC(=O)[C@H](Cc2ccc(O)cc2)NC(=O)[C@@H](NC(=O)[C@@H](NC(=O)[C@H](CCCN=C(N)N)NC(=O)[C@@H](N)CCCN=C(N)N)c2ccc3ccccc3c2)CSSC[C@@H](C(=O)N[C@@H](CCCN=C(N)N)C(N)=O)NC(=O)[C@H](CCCNC(N)=O)NC(=O)[C@H](CCCN=C(N)N)NC(=O)[C@H](Cc2ccc(O)cc2)NC(=O)[C@@H]2CCCN2C(=O)[C@@H](CCCCN)NC1=O`, the 50% cytotoxic concentration (CC50) in the assay on MT4 is more than 100 µM; in the assay with PBMC (Homo sapiens), 410 µM.

`NCCCC[C@@H]1NC(=O)[C@H](CCCN=C(N)N)NC(=O)[C@H](Cc2ccc(O)cc2)NC(=O)[C@@H](NC(=O)[C@@H](NC(=O)[C@H](CCCN=C(N)N)NC(=O)[C@@H](N)CCCNC(N)=O)c2ccc3ccccc3c2)CSSC[C@@H](C(=O)N[C@@H](CCCN=C(N)N)C(=O)O)NC(=O)[C@H](CCCNC(N)=O)NC(=O)[C@H](CCCN=C(N)N)NC(=O)[C@H](Cc2ccc(O)cc2)NC(=O)[C@@H]2CCCN2C(=O)[C@@H](CCCNC(N)=O)NC1=O`: the CC50 in the assay with MT4 was more than 100 µM; with PBMC (Homo sapiens), more than 800 µM.

Turning to `NCCCC[C@@H]1NC(=O)[C@H](CCCNC(N)=O)NC(=O)[C@H](Cc2ccc(O)cc2)NC(=O)[C@@H](NC(=O)[C@@H](NC(=O)[C@H](CCCN=C(N)N)NC(=O)[C@@H](N)CCCN=C(N)N)c2ccc3ccccc3c2)CSSC[C@@H](C(=O)N[C@@H](CCCN=C(N)N)C(N)=O)NC(=O)[C@H](CCCNC(N)=O)NC(=O)[C@H](CCCN=C(N)N)NC(=O)[C@H](Cc2ccc(O)cc2)NC(=O)[C@@H]2CCCN2C(=O)[C@@H](CCCNC(N)=O)NC1=O`, the CC50 with MT4 is more than 100 µM; with PBMC (Homo sapiens) it was more than 800 µM.

In the case of `NCCCC[C@@H]1NC(=O)[C@H](CCCN=C(N)N)NC(=O)[C@H](Cc2ccc(O)cc2)NC(=O)[C@@H](NC(=O)[C@@H](NC(=O)[C@H](CCCN=C(N)N)NC(=O)[C@@H](N)CCCNC(N)=O)c2ccc3ccccc3c2)CSSC[C@@H](C(=O)N[C@@H](CCCN=C(N)N)C(N)=O)NC(=O)[C@H](CCCNC(N)=O)NC(=O)[C@H](CCCN=C(N)N)NC(=O)[C@H](Cc2ccc(O)cc2)NC(=O)[C@@H]2CCCN2C(=O)[C@@H](CCCNC(N)=O)NC1=O`, the results for the CC50 in the assay on MT4 and in the assay on PBMC (Homo sapiens) were more than 100 µM and 500 µM, respectively.

On to `NCCCC[C@@H]1NC(=O)[C@H](CCCNC(N)=O)NC(=O)[C@H](Cc2ccc(O)cc2)NC(=O)[C@@H](NC(=O)[C@@H](NC(=O)[C@H](CCCN=C(N)N)NC(=O)[C@@H](N)CCCN=C(N)N)c2ccc3ccccc3c2)CSSC[C@@H](C(=O)N[C@@H](CCCN=C(N)N)C(N)=O)NC(=O)[C@H](CCCNC(N)=O)NC(=O)[C@H](CCCNC(N)=O)NC(=O)[C@H](Cc2ccc(O)cc2)NC(=O)[C@@H]2CCCN2C(=O)[C@@H](CCCCN)NC1=O`, for which the CC50 in the assay with MT4 is more than 100 µM; in the assay with PBMC (Homo sapiens), more than 400 µM.

Consider `NCCCC[C@@H]1NC(=O)[C@H](CCCN=C(N)N)NC(=O)[C@H](Cc2ccc(O)cc2)NC(=O)[C@@H](NC(=O)[C@@H](NC(=O)[C@H](CCCN=C(N)N)NC(=O)[C@@H](N)CCCNC(N)=O)c2ccc3ccccc3c2)CSSC[C@@H](C(=O)N[C@@H](CCCN=C(N)N)C(=O)O)NC(=O)[C@H](CCCNC(N)=O)NC(=O)[C@H](CCCNC(N)=O)NC(=O)[C@H](Cc2ccc(O)cc2)NC(=O)[C@@H]2CCCN2C(=O)[C@@H](CCCCN)NC1=O`, for which the CC50 with MT4 was more than 100 µM; in the assay on PBMC (Homo sapiens), more than 800 µM.

Consider `NCCCC[C@@H]1NC(=O)[C@H](CCCN=C(N)N)NC(=O)[C@H](Cc2ccc(O)cc2)NC(=O)[C@@H](NC(=O)[C@@H](NC(=O)[C@H](CCCN=C(N)N)NC(=O)[C@@H](N)CCCN=C(N)N)c2ccc3ccccc3c2)CSSC[C@@H](C(=O)N[C@@H](CCCN=C(N)N)C(=O)O)NC(=O)[C@H](CCCNC(N)=O)NC(=O)[C@H](CCCN=C(N)N)NC(=O)[C@H](Cc2ccc(O)cc2)NC(=O)[C@@H]2CCCN2C(=O)[C@@H](CCCNC(N)=O)NC1=O`, for which the values for the 50% cytotoxic concentration (CC50) in the assay on MT4 and in the assay on PBMC (Homo sapiens) were more than 80 µM and 110 µM, respectively.

Turning to `NCCCC[C@@H]1NC(=O)[C@H](CCCN=C(N)N)NC(=O)[C@H](Cc2ccc(O)cc2)NC(=O)[C@@H](NC(=O)[C@@H](NC(=O)[C@H](CCCN=C(N)N)NC(=O)[C@@H](N)CCCNC(N)=O)c2ccc3ccccc3c2)CSSC[C@@H](C(=O)N[C@@H](CCCN=C(N)N)C(N)=O)NC(=O)[C@H](CCCNC(N)=O)NC(=O)[C@H](CCCNC(N)=O)NC(=O)[C@H](Cc2ccc(O)cc2)NC(=O)[C@@H]2CCCN2C(=O)[C@@H](CCCCN)NC1=O`, the 50% cytotoxic concentration (CC50) is more than 100 µM in the assay on MT4 and 470 µM with PBMC (Homo sapiens).

A word on the CC50: it is the concentration that lowers cell viability or growth by half. Low readings indicate greater toxicity to the cells, high ones lower toxicity to the cells.
